Assay results: patent publication US20100249027A1, “CRF CONJUGATES WITH EXTENDED HALF-LIVES” (priority 2007, published 2010)
Read-outs that look alike come from different tables or passages of the source. Where no end group is shown, it is not given here.

Experiments:
[1] = plasma concentration time profile of hCRF after single intravenous and single subcutaneous injection (ELISA); type: in vivo, Sprague-Dawley Crl:CD rats; settings: rat; for bioavailability: sc
From the text: The objective of this study was to determine the plasma concentration time profile of hCRF following a single intravenous and a single subcutaneous injection in three groups of Sprague-Dawley Crl:CD® :R rats. […] For the intravenous portion of the study, each of the three dose groups consisted of 72 males. Each of these groups was divided into three sets of replicates. Seven days after the intravenous portion of the study, 61 of the 72 animals from each of the three dose groups were randomly selected for the subcutaneous portion of the study. Each dose group was divided into three sets of replicates. Blood samples were taken at multiple time points via orbital sinus bleeding. Following intravenous dosing, blood samples were collected at time points out to 24 hours post dose. Following subcutaneous dosing, blood samples were collected at time points out to 48 hours post dose. Blood samples were collected from three rats in each dose group for each time point. […] All of the surviving animals were euthanized on the third day following subcutaneous dosing.
Plasma samples were prepared and hCRF concentrations in the plasma samples were determine by an ELISA method. […] Pharmacokinetic analyses were conducted for this dose group using the limited data obtained.

CRF R1 = biological target: T1, CRF R1 (Homo sapiens, UniProt P34998); settings: cited from earlier work
T1 sequence (P34998 24-415): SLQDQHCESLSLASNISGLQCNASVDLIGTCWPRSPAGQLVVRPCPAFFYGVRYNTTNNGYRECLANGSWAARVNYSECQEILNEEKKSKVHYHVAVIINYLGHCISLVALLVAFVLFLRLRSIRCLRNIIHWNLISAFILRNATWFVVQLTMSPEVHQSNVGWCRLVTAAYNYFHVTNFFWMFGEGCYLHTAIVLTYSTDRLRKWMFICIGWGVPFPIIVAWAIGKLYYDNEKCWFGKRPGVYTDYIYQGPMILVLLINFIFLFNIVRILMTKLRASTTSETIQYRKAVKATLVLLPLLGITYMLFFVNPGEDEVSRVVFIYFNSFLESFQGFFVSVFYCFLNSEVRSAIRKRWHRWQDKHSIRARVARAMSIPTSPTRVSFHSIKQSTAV

**Q.** What does the source list for `CC[C@H](C)[C@H](NC(=O)[C@@H](NC(=O)[C@H](CCC(=O)O)NC(=O)[C@H](CCSC)NC(=O)[C@H](CC(C)C)NC(=O)[C@H](CCCCN)NC(=O)[C@H](CCCNC(=N)N)NC(=O)[C@H](CC(N)=O)NC(=O)[C@H](CO)NC(=O)[C@H](Cc1c[nH]cn1)NC(=O)[C@H](C)NC(=O)[C@H](CCC(N)=O)NC(=O)[C@H](CCC(N)=O)NC(=O)[C@H](C)NC(=O)[C@H](CC(C)C)NC(=O)[C@H](CCC(N)=O)NC(=O)[C@H](CCC(=O)O)NC(=O)[C@H](C)NC(=O)[C@H](CCCNC(=N)N)NC(=O)[C@H](C)NC(=O)[C@H](CCSC)NC(=O)[C@H](CCC(=O)O)NC(=O)[C@H](CC(C)C)NC(=O)[C@@H](NC(=O)[C@H](CCC(=O)O)NC(=O)[C@H](CCCNC(=N)N)NC(=O)[C@H](CC(C)C)NC(=O)[C@H](CC(C)C)NC(=O)[C@H](Cc1c[nH]cn1)NC(=O)[C@H](Cc1ccccc1)NC(=O)[C@@H](NC(=O)[C@H](CC(C)C)NC(=O)[C@H](CC(=O)O)NC(=O)[C@H](CC(C)C)NC(=O)[C@H](CO)NC(=O)[C@@H](NC(=O)[C@@H]1CCCN1C(=O)[C@@H]1CCCN1C(=O)[C@H](CCC(=O)O)NC(=O)[C@H](CCC(=O)O)NC(=O)[C@@H](N)CO)[C@@H](C)CC)[C@@H](C)O)C(C)C)[C@@H](C)CC)C(N)=O` [hCRF]?
**A.** AUC ([1]; in vivo, 10 ug/kg, IV): 0.0055 µg·h/mL; Cmax ([1]; in vivo, 10 ug/kg, IV): 0.0251 ± 0.0038 µg/mL; clearance ([1]; in vivo, 10 ug/kg, IV): 1.8 ± 0.184 L/h/kg; half-life ([1]; in vivo, 10 ug/kg, intravenous, 10 μg/kg, single exponential clearance, read-out: half-life): 9.2 min; AUC ([1]; in vivo, 100 ug/kg, IV): 0.516 µg·h/mL; Cmax ([1]; in vivo, 100 ug/kg, IV): 1.04 ± 0.105 µg/mL; clearance ([1]; in vivo, 100 ug/kg, IV): 0.194 ± 0.0156 L/h/kg; AUC ([1]; in vivo, 100 ug/kg, SC): 0.214 µg·h/mL; Cmax ([1]; in vivo, 100 ug/kg, SC): 0.108 ± 0.0167 µg/mL; half-life ([1]; in vivo, 100 ug/kg, intravenous, 100 μg/kg, single exponential clearance, read-out: half-life): 20.7 min; AUC ([1]; in vivo, 1000 ug/kg, SC): 1.79 µg·h/mL; Cmax ([1]; in vivo, 1000 ug/kg, SC): 0.618 ± 0.0789 µg/mL; bioavailability ([1]; in vivo, 100 ug/kg, subcutaneous): 41%; bioavailability ([1]; in vivo, subcutaneous, 1,000 μg/kg): 37%; AUC ([1]; in vivo, IV, 1,000 μg/kg): 4.88 µg·h/mL; Cmax ([1]; in vivo, IV, 1,000 μg/kg): 7.6 ± 0.488 µg/mL; clearance ([1]; in vivo, IV, 1,000 μg/kg): 0.205 ± 0.0108 L/h/kg; half-life ([1]; in vivo, intravenous, 1,000 μg/kg, single exponential clearance, read-out: half-life): 26.7 min; half-life ([1]; male, Sprague-Dawley Crl:CD, plasma, 100 ug/kg, SC, 100 μg/kg, read-out: t1/2β (terminal)): 62.6 ± 5.9 min; half-life ([1]; male, Sprague-Dawley Crl:CD, plasma, 1000 ug/kg, SC, 1000 μg/kg, read-out: t1/2β (terminal)): 72.1 ± 14.8 min; t1/2α ([1]; IV, 10 μg/kg): 9.22 ± 1.05 min; t1/2α ([1]; IV, 100 μg/kg): 20.71 ± 0.92 min; t1/2α ([1]; IV, 1,000 μg/kg): 26.69 ± 0.62 min; Bioavail. ([1]; SC, 100 μg/kg): 41 ± 6%; CL ([1]; SC, 100 μg/kg): 0.467 ± 0.0606 L/h/kg; t1/2α ([1]; SC, 100 μg/kg): 6.96 ± 3.44 min; Bioavail. ([1]; SC, 1000 μg/kg): 37 ± 5%; CL ([1]; SC, 1000 μg/kg): 0.558 ± 0.063 L/h/kg; t1/2α ([1]; SC, 1000 μg/kg): 21.56 ± 8.15 min; dose proportionality of pharmacokinetics ([1]; intravenously or subcutaneously, between 100 and 1,000 μg/kg): dose proportional

**Q.** Which “affinity for the CRF R1 subtype” value (CRF R1) does the source give for “III: CRF-related peptide Ucn III, also known as stresscopin (FTLSLDVPTNIMNLLFNIAKAKNLRAQAAANAHLMAQI; ends and bridges not checked; UniProt Q969E3 120-157, looked up)” here?
**A.** Its value is “little affinity”.

**Q.** Which “affinity for the CRF R1 subtype” value (CRF R1) does the source give for “Ucn II: CRF-related peptide urocortin II, 26% sequence homology to CRF (IVLSLDVPIGLLQILLEQARARAAREQATTNARILARVGHC; ends and bridges not checked; UniProt Q96RP3 72-112, looked up)” here?
**A.** The value was “little affinity”.
